The target in one assay is T1, Aurora B (Homo sapiens, UniProt Q96GD4).
T1 construct: HT-29 cells grown in complete growth media
Kind of assay: Aurora B cell mechanistic assay (HT-29), phospho-Histone H3 (Ser10) ELISA. In kind it is cell-based. The settings on record: HT-29 cell line; inhibition of phospho-Histone H3 (Ser10); at least duplicate experiments (italicized if single experiment); read-out: Aurora B mech IC50. Summed up: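 HT-29 cells treated 1 h at 37 °C with serially diluted compound, then 100 nM Calyculin A added for 30 min. Lysates assayed by phospho-Histone H3 (Ser10) ELISA at 450 nm; normalized to DMSO (100%) and a reference Aurora B inhibitor (full inhibition); IC50 by four-parameter fit.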
Background: An ELISA detects its analyte on a solid surface through an enzyme-linked reagent.

In a further assay the test system is Karpas-299 cells. The assay is described as follows: Karpas-299 cell proliferation assay (CellTiter-Glo). In kind it is cell-based. The settings on record: Homo sapiens, 72 h; Karpas-299 cell line (NPM-ALK); 3 days incubation; at least duplicate experiments; read-out: Prolif. IC50.

We go through five compounds from US8445510B2, “Fused bicyclic kinase inhibitors” (OSI Pharmaceuticals, LLC, priority 2011, dated 2013).

T1 sequence (Q96GD4 whole entry): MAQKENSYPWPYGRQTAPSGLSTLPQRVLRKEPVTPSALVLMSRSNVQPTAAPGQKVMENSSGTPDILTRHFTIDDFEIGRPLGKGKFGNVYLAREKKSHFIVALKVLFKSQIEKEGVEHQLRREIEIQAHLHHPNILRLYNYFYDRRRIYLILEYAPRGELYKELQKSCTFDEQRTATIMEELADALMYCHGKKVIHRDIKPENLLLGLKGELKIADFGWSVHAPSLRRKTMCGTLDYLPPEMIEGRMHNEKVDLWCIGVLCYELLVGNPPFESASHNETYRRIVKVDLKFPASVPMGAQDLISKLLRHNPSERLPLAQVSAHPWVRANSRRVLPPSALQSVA

For the compound `[2H]C([2H])([2H])Oc1ccc(F)c(Cl)c1[C@@H](C)c1c[nH]c2ncc(-c3cnn([C@H]4CC[C@H](O)CC4)c3C)cc12` [Example 107, trans-4-(4-{3-[(1S)-1-{2-Chloro-3-fluoro-6-[(^2H3)methyloxy]phenyl}ethyl]-1H-pyrrolo[2,3-b]pyridin-5-yl}-5-methyl-1H-pyrazol-1-yl)cyclohexanol], the IC50 (as a rule, the concentration at which inhibition is half-maximal) at Aurora B was > 1000 nM; in the assay with Karpas-299 cells it was 50 to 200 nM.
For `COc1ccc(F)c(Cl)c1[C@@H](C)c1c[nH]c2ncc(-c3c(C)nn(CC(C)(C)O)c3C)cc12` [Example 5, 1-(4-{3-[(1S)-1-(2-Chloro-3-fluoro-6-methoxyphenyl)ethyl]-1H-pyrrolo[2,3-b]pyridin-5-yl}-3,5-dimethyl-1H-pyrazol-1-yl)-2-methylpropan-2-ol], in that order: > 1000 nM and ≤ 50 nM.
As to `CCc1c(-c2cnc3[nH]cc([C@H](C)c4c(OC(F)F)ccc(F)c4Cl)c3c2)cnn1[C@H]1CC[C@H](O)CC1` [Example 78, trans-4-[4-(3-{(1S)-1-[2-Chloro-6-(difluoromethoxy)-3-fluorophenyl]ethyl}-1H-pyrrolo[2,3-b]pyridin-5-yl)-5-ethyl-1H-pyrazol-1-yl]cyclohexanol], the half-inhibitory concentration (IC50) on Aurora B is > 1000 nM; in the assay with Karpas-299 cells it was ≤ 50 nM.
As to `Cc1c(-c2cnc3[nH]cc([C@H](C)c4c(OC(F)F)ccc(F)c4Cl)c3c2)cnn1[C@H]1C[C@@](C)(O)C1` [Example 79, cis-3-[4-(3-{(1S)-1-[2-Chloro-6-(difluoromethoxy)-3-fluorophenyl]ethyl}-1H-pyrrolo[2,3-b]pyridin-5-yl)-5-methyl-1H-pyrazol-1-yl]-1-methylcyclobutanol], the results for the IC50 at Aurora B and with Karpas-299 cells were > 1000 nM and 50 to 200 nM, respectively.
The matching figures for `COc1ccc(F)c(Cl)c1[C@@H](C)c1c[nH]c2ncc(-c3cnn(C)c3CO)cc12` [Example 44, (4-{3-[(1S)-1-(2-Chloro-3-fluoro-6-methoxyphenyl)ethyl]-1H-pyrrolo[2,3-b]pyridin-5-yl}-1-methyl-1H-pyrazol-5-yl)methanol]: > 1000 nM and 50 to 200 nM.
